Test results published in patent US7973128B2, “Immunogenic polypeptide composed of tumor antigen-derived optimized cryptic peptides, and uses thereof” (Vaxon Biotech, priority 2005, dated 2011).

Tests used:
[1] = system: HLA-A*0201 transgenic HHD mice; experiment: Tetramer-positive CD8 T cells in draining lymph nodes of vaccinated HHD mice; format: in vivo, mouse; conditions: for Frequency of strong responses (% of tetramer-positive CD8 cells at least twice the cutoff value; ++) / Responding mice (response to at least one peptide): HHD mice vaccinated with polypeptide; for Trispecific response: HHD mice, response to all three peptides
Method: HHD mice were injected subcutaneously with 100 μg of nonamer/decamer peptides, and with 240 μg of polypeptide emulsified in incomplete Freund's adjuvant (IFA) plus 150 μg of the I-A^b restricted HBVcore128 T-helper epitope. Eleven days later spleen cells (5×10^7 cells in 10 ml) from immunized mice were stimulated in vitro with peptide (10 μM) in RPMI 1640+10% FCS for five days. The CTL lines were established by weekly re-stimulation in vitro with irradiated spleen cells in the presence of diminishing peptide concentrations (1 to 0.1 μM) and 50 U/ml IL-2 (Proleukin, Chiron Corp., Emeryville, Calif.).
For tetramer labeling, cells from inguinal and para-aortic lymph nodes (LN) of immunized mice were stained with 15 μg/ml PE-coupled HLA-A2/TERT988Y, HLA-A2/MAGE-A248V9 and HLA-A2/HER-2/neu402Y tetramers (Proimmune, Oxford, UK) in the presence of an anti-Fc receptor antibody (clone 2.4 G2) in 20 μl of PBS, 2% FCS for 1 h at room temperature. The cells were washed once in PBS, 2% FCS and then stained with anti-CD44-FITC (clone 1M.178), anti-TCRβ-cychrome (clone H57) and anti-CD8α-APC (clone 53.6.7) (BD Biosciences, Le Pont de Claix, France) in 50 μl of PBS, 2% FCS for 30 min at 4° C. The cells were then washed once in PBS, 2% FCS and immediately analyzed in a FACSCalibur® flow cytometer (Becton Dickinson, San Jose, Calif., USA).
The simplest way to stimulate a polyspecific CTL response in vivo would be to inject a mixture of the relevant peptides. Therefore, the inventors examined whether HHD mice vaccinated with an equimolar mixture of peptides HER-2/neu402Y, TERT988Y and MAGE-A248V9 developed a polyspecific response in vivo. The immune response was evaluated by measuring the frequency of peptide-specific CD8 T cells in the lymph nodes draining the injection site seven days after vaccination, using specific tetramers. Before use, each tetramer was validated with peptide-specific CTL lines as previously described (Miconnet et al., 2002). A positive response was recorded when the percentage of tetramer-positive CD8 cells was higher than the mean percentage+3 standard deviations of tetramer-positive CD8 cells in six naive mice (0.16% for MAGE-A248V9, 0.13% for HER-2/neu402Y and 0.16% for TERT988Y). Eight mice were vaccinated with the peptide mixture in two independent experiments (Table 2). […] Three mice responded to one peptide and five responded to two peptides. Responses to MAGE-A248V9 were more frequent (6/8 mice) than responses to HER-2/neu402Y (4/8 mice) or TERT988Y (3/8 mice).
HHD mice were vaccinated with each polypeptide, and CD8 T cells specific for the individual peptides were identified in draining lymph nodes by using specific tetramers. All six polypeptide variants were immunogenic in HHD mice (i.e., they generated a response to at least one peptide) but the frequency of responding mice varied from one variant to the other. The most immunogenic variants were Poly-1, Poly-3 and Poly-6, with 100%, 87% and 83% of responding mice, respectively (Table 6). Poly-2, Poly-4 and Poly-5 induced a response in respectively 57%, 62% and 62% of vaccinated mice. The frequency of strong responses (% of tetramer-positive CD8 cells at least twice the cutoff value; designated ++) was highest with Poly-6 (41% of all responses), Poly-3 (30% of all responses) and Poly-1 (25% of all responses). The responses were directed against MAGE-A248V9 in 74% of responding mice, HER-2/neu402Y in 71% and TERT988Y in 55%.

[2] = system: PBMC from healthy HLA-A*0201 donors; experiment: In vitro stimulation of healthy donor PBMC, intracellular IFNγ labeling of CD8 cells; format: cell-based, human; conditions: for Donors with responses to all three peptides (trispecific): healthy donor PBMC, IFNγ-producing CD8 cells
Method: PBMC were collected by leukapheresis from healthy HLA-A*0201 volunteers. Dendritic cells (DC) were produced from adherent cells (2×10^6 cells/ml) cultured for seven days with 500 IU/ml GM-CSF (Leucomax®, Schering-Plough, Kenilworth, N.J.) and 500 IU/ml IL-4 (R&D Systems, Minneapolis, Minn.) in complete medium (RPMI 1640 supplemented with 10% heat-inactivated human AB serum, […] and antibiotics). On day 7, DC were pulsed with 10 μM peptides or polypeptides for 2 h; the maturation agents Poly I:C (Sigma, Oakville, Canada) at 100 ng/ml, and anti-CD40 mAb (clone G28-5, ATCC, Manassas, Va.) at 2 μg/ml were added to the culture and DCs were further incubated at 37° C. overnight or for up to 48 hours. Mature DC were then irradiated (3500 rads). CD8+ cells were purified by positive selection with CD8 MicroBeads (Miltenyi Biotec, Auburn, Calif.) according to the manufacturer's instructions. CD8^+ cells (2×10^5)+CD8^− cells (6×10^4) were stimulated with 2×10^4 peptide-pulsed DC in complete culture medium supplemented with 1000 IU/ml IL-6 and 5 IU/ml IL-12 (R&D Systems, Minneapolis, Minn.) in round-bottomed 96-well plates. From day 7, cultures were restimulated weekly with peptide-loaded DC in the presence of 20 IU/ml IL-2 (Proleukin, Chiron Corp., Emeryville, Calif.) and 10 ng/ml IL-7 (R&D Systems, Minneapolis, Minn.). After the third restimulation, CD8 cells were tested in an IFN-γ release assay.
T cells (10^5) were incubated with 2×10^5 T2 cells loaded with stimulating peptide in the presence of 20 μg/ml Brefeldin-A (Sigma, Oakville, Canada). Six hours later they were washed, stained with r-phycoerythrin-conjugated anti-CD8 antibody (Caltag Laboratories, Burlingame, Calif.) in PBS for 25 min at 4° C., washed again, and fixed with 4% PFA. The cells were then permeabilized with PBS, 0.5% BSA, 0.2% saponin (Sigma, Oakville, Canada), and labeled with an allophycocyanin-conjugated anti-IFNγ mAb (PharMingen, Mississauga, Canada) for 25 min at 4° C. before analysis with a FACSCalibur™ flow cytometer (Becton Dickinson, Mountain View, Calif.).
The inability of the peptide mixture to stimulate a trispecific CD8 T cell response was confirmed in vitro with human cells. […] PBMC activation was evaluated by measuring the percentage of IFNγ-producing CD8 cells by means of intracellular labeling. A positive response was recorded when the percentage of activated PBMC was at least twice that obtained with an irrelevant peptide. […]
In vitro immune responses were assessed by measuring the percentage of CD8 cells producing IFNγ after specific peptide activation. […]

YLEEITGYL-YLQVNSLQTV-YLEYRQVPV (SEQ ID No: 5) (YLEEITGYLYLQVNSLQTVYLEYRQVPV; Poly-3) [polypeptide variant, arrangement N-T-M]
Frequency of strong responses (% of tetramer-positive CD8 cells at least twice the cutoff value; ++) [1]: 30 % of all responses | Responding mice (response to at least one peptide) ([1]; tetramers): 87% | Trispecific response [1]: 12.5 % of vaccinated mice

YLEYRQVPV-YLEEITGYL-YLQVNSLQTV (SEQ ID No: 3) (YLEYRQVPVYLEEITGYLYLQVNSLQTV; Poly-1) [polypeptide variant of MAGE-A248V9, HER-2/neu402Y and TERT988Y, arrangement M-N-T]
Frequency of strong responses (% of tetramer-positive CD8 cells at least twice the cutoff value; ++) [1]: 25 % of all responses | Responding mice (response to at least one peptide) ([1]; tetramers): 100% | Trispecific response [1]: 28.5 % of vaccinated mice | Donors with responses to all three peptides (trispecific) [2]: 25 % of donors

YLQVNSLQTV-YLEYRQVPV-YLEEITGYL (SEQ ID No: 2) (YLQVNSLQTVYLEYRQVPVYLEEITGYL; Poly-6) [polypeptide variant, arrangement T-M-N]
Frequency of strong responses (% of tetramer-positive CD8 cells at least twice the cutoff value; ++) [1]: 41 % of all responses | Responding mice (response to at least one peptide) ([1]; tetramers): 83% | Trispecific response [1]: 67 % of vaccinated mice | Strength of responses in human donor cells, in words ([2]; against MAGE-A248V9 in donors #D7017 and #D7225, against HER-2/neu402Y in donor #D7744): strongest responses | Peptides the donor's CD8 cells responded to ([2]; donor #D7225): all three peptides | Donors with responses to all three peptides (trispecific) [2]: 80 % of donors

YLEYRQVPV-YLQVNSLQTV-YLEEITGYL (SEQ ID No: 4) (YLEYRQVPVYLQVNSLQTVYLEEITGYL; Poly-2) [polypeptide variant, arrangement M-T-N]
Responding mice (response to at least one peptide) ([1]; tetramers): 57% | Immunogenicity in HHD mice, in words ([1]; response to at least one peptide): very weakly immunogenic | Mice responding simultaneously to all three peptides (trispecific response), in words ([1]; vaccinated HHD mice, tetramers): did not induce a trispecific response in any mice

YLQVNSLQTV-YLEEITGYL-YLEYRQVPV (SEQ ID No: 7) (YLQVNSLQTVYLEEITGYLYLEYRQVPV; Poly-5) [polypeptide variant, arrangement T-N-M]
Responding mice (response to at least one peptide) ([1]; tetramers): 62% | Trispecific response [1]: 25 % of vaccinated mice

YLEEITGYL-YLEYRQVPV-YLQVNSLQTV (SEQ ID No: 6) (YLEEITGYLYLEYRQVPVYLQVNSLQTV; Poly-4) [polypeptide variant, arrangement N-M-T]
Responding mice (response to at least one peptide) ([1]; tetramers): 62% | Trispecific response [1]: 37.5 % of vaccinated mice
